# Results as given in patent publication US20190015379A1, “USE OF DIANHYDROGALACTITOL AND ANALOGS AND DERIVATIVES THEREOF, TOGETHER WITH RADIATION, TO TREAT NON-SMALL-CELL CARCINOMA OF THE LUNG AND GLIOBLASTOMA MULTIFORME AND SUPPRESS PROLIFERATION OF CANCER STEM CELLS” (DelMar Pharmaceuticals, Inc., priority 2014, published 2019).
# Experiments:
# GBM = conditions: cited from earlier work
# [1] = in vivo; cited from earlier work
# [2] = test system: cancer stem cells (BT74, GBM4 and GBM8); conditions: neurosphere growth assays; Hu et al. 2012; cited from earlier work
# [3] = Phase I/II dose-escalation study, plasma pharmacokinetics; assay type: in vivo, human
# Excerpt: (§1) The methodology of the study reported in this Example is as follows: An open-label, single arm Phase I/II dose-escalation study designed to evaluate the safety, tolerability, pharmacokinetics and anti-tumor activity of dianhydrogalactitol in patients with: (i) histologically confirmed initial diagnosis of primary WHO Grade IV malignant GBM, now recurrent, or (ii) progressive secondary brain tumor, having failed standard brain radiotherapy, and with brain tumor progression after at least one line of systemic therapy. The study utilizes a 3+3 dose escalation design, until the MTD or the maximum specified dose is reached. Patients receive dianhydrogalactitol intravenously at the assigned dose on days 1, 2, and 3 of each 21-day treatment cycle. In Phase II, additional patients will be treated at the MTD (or other selected optimum Phase II dose) to measure tumor responses. All patients enrolled have previously been treated with surgery and/or radiation, if appropriate, and must have failed both bevacizumab and TMZ, unless contraindicated. For these studies, the following is a summary of the inclusion criteria: (1) Patients must be greater than or equal to 18 years old. […]
# [4] = test system: CSC and non-CSC cultures derived from primary GBM tissue; test: Cell cycle analysis (propidium iodide staining, FACS) in primary GBM cultures; assay type: cell-based, human
# Method: “GAPDH” refers to glyceraldehyde-3-phosphate dehydrogenase as a control. For the cell cultures, CSCs were cultured in NSA media supplemented with B27, EGF and bFGF. Non-CSCs were grown in DMEM:F12 with 10% FBS. MGMT methylation and protein expression analysis of each culture was characterized. TMZ or VAL-083 was added to the cultures in the indicated concentrations. Depending on the experiment, cells were also irradiated with 2 Gy in a Cesium irradiator. For assays, cell cycle analysis was performed with Propidium Iodide staining and FACs analysis. Cell viability was analyzed with CellTiter-Glo™ and read on a Promega GloMax™. […] In FIG. 4, “1° GBM” refers to primary glioblastoma multiforme cell cultures.
# In FIG. 16, cells were treated with either increasing doses of TMZ (5, 50 100 and 200 μM) or dianhydrogalactitol (“VAL-083”) (1, 5, 25 and 100 μM) and cell cycle analysis was performed 4 days post treatment.
# Additional experiments were performed to test the effect of the duration of drug administration. […] Dianhydrogalactitol was left on for the duration of the treatment.
# [5] = Tolerability in A549 tumor-bearing Rag2 mice (body weight, CBC, clinical observations)
# Method: Tumor growth was monitored by measuring tumor dimensions with calipers beginning on the first day of treatment. Tumor length and width measurements were obtained each Monday, Wednesday, and Friday. Tumor volumes were calculated according to the equation L×W^2/2 with the length (in mm) being defined as the longer axis of the tumor. Animals were weighed at the time of tumor measurement. Tumors were allowed to grow to a maximum of 800 mm^3 before termination.
# All animals had blood collected by cardiac puncture at termination for CBC (complete blood count) with differentiation.
# In particular, signs of ill-health were based on body weight loss, change in appetite, and behavioral signs such as altered gait, lethargy, and gross manifestations of stress. If signs of severe toxicity or tumor-related illness were seen, the animals were terminated by isoflurane overdose followed by CO2 asphyxiation, and a necropsy was performed to assess other signs of toxicity. The following organs were examined: liver, gall bladder, spleen, lung, kidney, heart, intestine, lymph nodes, and bladder. Any unusual findings were noted.
# [6] = test system: normal human neural stem cells; conditions: neurosphere growth assays; Hu et al. 2012; cited from earlier work
# [7] = test system: GBM cell lines SF188, U251, and T98G; test: Tumor growth inhibition in GBM cell lines (FIG. 29); assay type: cell-based, human; conditions: MGMT negative SF188 and U251, MGMT positive T98G
# [8] = test system: progressive secondary brain tumor; test: Phase I/II dose-escalation study, tumor response in secondary brain tumor patients; assay type: in vivo, human; conditions: n = 6
# Excerpt: as §1
# Enrollment and evaluation of Cohort 7 (40 mg/m^2) is ongoing. […] Tumor volume is assessed during the study based on RANO criteria. […]
substance,measurement,setting,value
dianhydrogalactitol,Median O.S. (XRT + Chemo),"GBM; GBM, Eagan (1979), Stupp (2005)",67 weeks
same,efficacy in combination with radiation versus radiation alone,"GBM; cumulative IV dose of 125 mg/m^2 in a 35 day cycle, brain cancer, Eagan 1979",superior to radiation alone
same,blood-brain barrier passage,[1],readily crosses the blood-brain barrier and accumulates in brain tissue
same,inhibition of growth of cancer stem cells,[2],80-100%
same,"pharmacokinetics, dose dependence",[3]; dose cohorts of the current trial,linear
same,plasma half-life,"[3]; i.v., patients",1 to 2 h
same,"cell death, concentration compared with temozolomide","[4]; CSC and non-CSC cultures, FACS profiles (FIGS. 7-9)",cause cell death at lower concentrations than temozolomide
same,cell cycle arrest in TMZ-resistant cultures,"[4]; VAL-083 1, 5, 25 and 100 μM, cell cycle analysis 4 days post treatment, paired CSC and non-CSC","exhibited sensitivity to VAL-083, even at single-micromolar doses"
same,"cell cycle arrest and loss of cell viability, summary","[4]; all cultures tested, independent of MGMT status and stem versus non-stem",cell cycle arrest and loss of cell viability in nearly all cultures tested
same,effect of duration of drug exposure on cell cycle,"[4]; washed out after 3 hours versus left on, 7996 GNS, 8279 GNS, 7996 ML, 8565 ML",less effect when washed out after 3 hours
same,body weight loss,[5]; dianhydrogalactitol 6 mg/kg (group 5),body weight loss was observed
same,tolerability of the dosage,"[5]; dianhydrogalactitol 6 mg/kg, only 3 of 9 scheduled doses administered",significant weight loss and morbidity
same,"hemoglobin (g/L), CBC at termination, versus untreated control",[5]; groups 4 or 5 (dianhydrogalactitol 3 or 6 mg/kg),Statistical significance (p<0.05)
same,effect on normal human neural stem cells,[6],minimal effect
same,inhibition of tumor growth compared with TMZ,[7],better than TMZ for inhibiting tumor growth
same,"Tumor Response, Overall","[8]; secondary brain tumors (breast adenocarcinoma 2, small-cell lung carcinoma 3, melanoma 1)",Overall = 17%
same,"Tumor Response, SD (number of patients)",[8]; secondary brain tumors,SD (1)
